The nature of data set [1]: Solid form stability on storage at elevated relative humidity (XRPD). Type of data set: physicochemical. An excerpt: X-Ray powder diffraction patterns were collected on a Bruker AXS C2 GADDS or Bruker AXS D8 Advance diffractometer.
X-Ray Powder Diffraction patterns were collected on a Bruker D8 diffractometer using Cu Kα radiation (40 kV, 40 mA), θ−2θ goniometer, and divergence of V4 and receiving slits, a Ge monochromator and a Lynxeye detector. The instrument was performance checked using a certified Corundum standard (NIST 1976). The software used for data collection was Diffrac Plus XRD Commander v2.5.0 and the data were analyzed and presented using Diffrac Plus EVA v 11.0.0.2 or v 13.0.0.2. Samples were run under ambient conditions as flat plate specimens using powder. Approximately 5 mg of the sample was gently packed into a cavity cut into polished, zero-background (510) silicon wafer. The sample was rotated in its own plane during analysis. The details of the data collection are: • Angular range: 2 to 42° 2θ • Step size: 0.05° 2θ • Collection time: 0.5 s·step^−1

A short description of data set [2]: Gravimetric Vapour Sorption (GVS). Type of data set: physicochemical. The procedure: In some embodiments, sorption isotherms were obtained using a SMS DVS Intrinsic moisture sorption analyzer, controlled by SMS Analysis Suite software. The sample temperature was maintained at 25° C. by the instrument controls. The humidity was controlled by mixing streams of dry and wet nitrogen, with a total flow rate of 200 ml·min−1. The relative humidity was measured by a calibrated Rotronic probe (dynamic range of 1.0-100% RH), located near the sample. The weight change (mass relaxation) of the sample as a function of % RH was constantly monitored by the microbalance (accuracy ±0.005 mg). Typically 5-20 mg of sample was placed in a tared mesh stainless steel basket under ambient conditions. The sample was loaded and unloaded at 40% RH and 25° C. (typical room conditions). A moisture sorption isotherm was performed as outlined below (2 scans giving 1 complete cycle). The standard isotherm was performed at 25° C. at 10% RH intervals over a 0.5-90% RH range.
The sample was recovered after completion of the isotherm and re-analyzed by XRPD.

Data set [3] is described as follows: Solubility assessment at various pH levels (solubility profile). The following applies: 0.15M NaCl solution, saline or isotonic, thermodynamic from solid. In kind it is physicochemical. As to the method:
For solubility assessment at various pH levels sufficient material to produce a maximum concentration of 10 mg·ml^−1 of API was treated with 0.15M NaCl solution and then the pH adjusted with HCl or NaOH solutions to achieve the desired pH levels. The suspensions were allowed to equilibrate for 2 hours and the pH measured and adjusted if necessary. Suspensions were then filtered and the amount of dissolved API quantified by HPLC against a standard reference solution.
Analysis was performed on an Agilent HP1100 series system equipped with a diode array detector and using ChemStation software vB.02.01-SR1.
The solubility of both the free acid and amorphous sodium salt was determined at a range of pH values.

Data set [4] is described as follows: Metabolite identification in hepatocytes. Type of data set: in vitro ADME, rat, dog, monkey, human. The following applies: 30 μM Compound 1. As to the method: Rat, dog, monkey, or human hepatocytes were thawed according to the supplier's instructions. Cells were counted using the Trypan Blue method, and then diluted to 1×10^6 viable cells/ml with KB medium. Compound 1 was tested at 30 μM and incubated for up to 2 hours in rat hepatocytes and 4 hours in dog, monkey or human hepatocytes at 37° C. Reactions were terminated with addition of 3 times incubation volume of acetonitrile, centrifuged, and supernatants were transferred, nitrogen blow dried and reconstituted in 50% acetonitrile in water for LC/MS analysis.
(§1) LC/MS/MS analysis was carried out with a Sciex API-4000Qtrap tandem mass spectrometer (Applied Biosystems/Life Technologies, Carlsbad, Calif.) interfaced to a high-performance liquid chromatography system consisting of an Agilent 1200 series pump (Foster City, Calif.) and a LEAP Technologies PAL autoinjector (Carrboro, N.C.).
(§2) Parent/metabolite analysis was conducted in the positive ion mode (ESI) by multiple reaction monitoring of parent. The mobile phases contained 10 mM ammonium acetate in water with 0.05% formic acid (solvent A) and 10 mM ammonium acetate in 50% acetonitrile/50% methanol with 0.05% formic acid (solvent B). For Compound 1, the flow rate was maintained at 1 mL/min and the total run time was 2.5 min. Analytes were separated on a YMC ODS-AQ column (2.1×150 mm; 3 μm) and eluted with a linear gradient as follows: • 1. mobile phase was held for 0.5 min at 5% B, • 2. B was increased from 5% to 95% over the next 0.2 min, • 3. B was held constant for 1.3 min at 95%, and • 4. B was returned to the initial gradient conditions.
(§3) GSH adducts were investigated in microsomes, hepatocytes and rat bile using several methods including the neutral loss of pyroglutamate (129 Da) as well as a precursor ion scans of Compound 1 (105 Da, 318 Da and 438 Da).
For metabolite quantitation, the flow rate was maintained at 0.25 mL/min and the total run time was 60 min. Analytes were separated using a linear gradient as follows: • 1. mobile phase was held for 5 min at 5% B, • 2. B was increased from 5% to 95% over the next 45 min. • 3. […]

A short description of data set [5]: Metabolites generated in vivo (rat bile and urine, rat and dog plasma). The following applies: Compound 2 IV 2 mg/kg, bile duct cannulated rats. As to the method: Compound 2 (2 mg/kg) was administered intravenously (IV) to fasted rats as a solution in 0.9% saline via a bolus injection into the jugular vein (2 mg/mL; […]).
Rats with surgically placed bile duct and jugular vein cannula were purchased from Charles River Laboratories and allowed to acclimate for 2 days. Compound 2 was intravenously dosed (2 mg/kg) to three rats as a solution in 0.9% saline (2 mg/mL; 1 mL/kg). Bile samples were collected at time-points 0-2, 2-5 and 5-8, and urine samples were collected at time-points 0-4 and 4-8 hrs post-dose in 8 mL scintillation vials and stored at −40° C. until analysis.
Concentrations of Compound 1 in rat plasma were determined by LC-MS/MS after protein precipitation. Rat plasma (100 μL) was treated with 400 μL of internal standard solution (ISTD, buspirone in acetonitrile containing 1.5% acetic acid) to precipitate proteins. Samples were vortexed and then centrifuged for 10 min at approximately 4,000 rpm (3700×g) at 4° C. (Beckman centrifuge, Brea, Calif.).
as §2
For metabolite quantitation, the flow rate was maintained at 0.25 mL/min and the total run time was 60 min. Analytes were separated using a linear gradient as follows: • 1. mobile phase was held for 5 min at 5% B, • 2. B was increased from 5% to 95% over the next 45 min. • 3. B was held constant for 5 min at 95%, and • 4. B was returned to the initial gradient conditions

Data set [6] in a line: Metabolite identification in liver microsomes. In kind it is in vitro ADME, rat, dog, monkey, human. The note with it: 30 μM Compound 1, 60 minutes. As to the method:
To determine the qualitative metabolic profile, 30 μM of Compound 1 was incubated aerobically with rat, dog, monkey, or human liver microsomes (1 mg/mL). The incubations were performed in phosphate buffer at pH 7.4, 37° C., with the reaction initiated by the addition of P-NADPH, GSH and/or UDPGA (1, 5 and 2 mM final concentration, respectively). The reaction was terminated by the addition of 3 times incubation volume of acetonitrile after 60 minutes. The sample was centrifuged and the supernatant was transferred, nitrogen blow dried and reconstituted in 50% acetonitrile in water for LC/MS analysis.
as §1, §2, §3
For metabolite quantitation, the flow rate was maintained at 0.25 mL/min and the total run time was 60 min. Analytes were separated using a linear gradient as follows: • 1. mobile phase was held for 5 min at 5% B, • 2. […]
Background: Microsomes from liver hold many membrane-bound enzymes, among them those of drug oxidation.

Where [7] appears, read: 40° C./75% RH for one week, sodium salt.

Molecules are shown by their SMILES.

As for `Cc1noc(-c2ccc(-c3ccc(C4(C(=O)[O-])CC4)cc3)cc2)c1NC(=O)O[C@H](C)c1ccccc1.[Na+]` [Amorphous Compound 2, 1-{4′-[3-methyl-4-((R)-1-phenyl-ethoxycarbonylamino)-isoxazol-5-yl]-biphenyl-4-yl}-cyclopropanecarboxylic acid, sodium salt], in data set [1] (setting [7]), the “XRPD / solid form after storage” value is “remains largely amorphous”. Besides, the “change of form after GVS analysis (XRPD)” value in data set [2] was “No change of form is observed”. The “mass gain between 0% and 90% relative humidity” value in data set [2] (25° C.) is given as “more than 20%”.
The solubility is the dissolved amount per volume that the medium holds. In the case of `Cc1noc(-c2ccc(-c3ccc(C4(C(=O)[O-])CC4)cc3)cc2)c1NC(=O)O[C@H](C)c1ccccc1.[Na+]` [Compound 2 (Amorphous)], the solubility at 2 h in data set [3] (Target pH 3, pH adjusted with HCl or NaOH) is below 1 µg/mL; in data set [3] (Target pH 4, pH adjusted with HCl or NaOH), below 1 µg/mL; in data set [3] (Target pH 5, pH adjusted with HCl or NaOH) it was below 1 µg/mL; in data set [3] (Target pH 6, pH adjusted with HCl or NaOH), 1.7 µg/mL; in data set [3] (Target pH 7, pH adjusted with HCl or NaOH), 300 µg/mL; in data set [3] (Target pH 8, pH adjusted with HCl or NaOH), 5600 µg/mL. The solubility at 2 h was 17000 µg/mL in data set [3] (Target pH 9, pH adjusted with HCl or NaOH) and 16000 µg/mL in data set [3] (Target pH 11, pH adjusted with HCl or NaOH).
Regarding `Cc1noc(-c2ccc(-c3ccc(C4(C(=O)ON[C@H](C=O)CCC(=O)O)CC4)cc3)cc2)c1NC(=O)O[C@H](C)c1ccccc1` [Compound M1], the “metabolite observed in hepatocytes” value in data set [4] was “major metabolites”. Besides, in data set [5], the “metabolite observed in rat bile” value is “major metabolites”. The “metabolite observed in liver microsomes” value in data set [6] is “major metabolites”.
Consider `Cc1noc(-c2ccc(-c3ccc(C4(C(=O)O)CC4)cc3)cc2)c1NC(=O)O[C@H](C)c1cccc(O)c1` [Compound M4], for which, in data set [4], the “metabolite observed in hepatocytes” value is “observed”. In data set [5], the “metabolite observed in rat bile” value is “observed”. In addition, the “metabolite observed in liver microsomes” value in data set [6] was “observed”.
Take `Cc1noc(-c2ccc(-c3ccc(C4(C(=O)[O-])CC4)cc3)cc2)c1NC(=O)O[C@H](C)c1ccccc1.[Na+]` [Crystalline Compound 2 (Pattern 1), 1-{4′-[3-methyl-4-((R)-1-phenyl-ethoxycarbonylamino)-isoxazol-5-yl]-biphenyl-4-yl}-cyclopropanecarboxylic acid, sodium salt]: the “XRPD / solid form after storage” value is given as “no loss of crystallinity” in data set [1] (25° C./95% RH, a week) and “no loss of crystallinity” in data set [1] (setting [7]). Besides, in data set [2], the “hygroscopicity (comparison)” value is on record as “lower hygroscopicity than its amorphous counterpart”.

Values taken from patent US20170121295A1, “POLYCYCLIC LPA1 ANTAGONIST AND USES THEREOF” (AMIRA PHARMACEUTICALS, INC., priority 2010, published 2017).
